Data taken from patent US9072698B2, “Method for screening anti-cancer compounds inhibiting function of TM4SF5 and anti-cancer composition containing chalcone compounds” (Seoul National University Industry Foundation, priority 2006, dated 2015).

What was measured:
[1] = tested on: tumors formed in mice implanted with TM4SF5-expressing cells (SNU449Tp); experiment: Tumors in nude mice implanted with TM4SF5-expressing cells, intraperitoneal TSAHC; format: in vivo
Method: Next, various SNU449 cell lines, expressing or not expressing TM4SF5, were injected into nude mice. 4-5 week-old female nude BALB/cAnNCrjBgi-nu mice (Orient. Co. Ltd), weighing about 20 g, were used. Animals were housed in sterilized cages, and given free access to sterilized water and feed. All procedures were carried out in the clean bench in which laminar flow was continuously maintained to provide a clean environment.
Nude mice were maintained under a light cycle of 12-hr light and 12-hr dark using indoor lamps, for biological cycle of day and night. Suspensions of SNU449 Cp, SNU449Tp, SNU449T16 and SNU449T16m cells were centrifuged, and the concentrated cells were counted using a hemocytometer to adjust them to a density of 1×10^7 cells/200 The prepared cells were subcutaneously injected into the flank of nude mice using a 1-ml syringe having a 26-gauge needle. Experimental animals were maintained according to the preclinical method for breeding of laboratory animals, Seoul National University, and were monitored for tumor formation by SNU449Tp cells.
The length and width of tumors formed in nude mice, prepared in Example 6, were measured one every two days using calipers. Tumor volume was calculated according to the following Equation: Volume (mm^3)=Length×Width2×½, Length: long diameter, Width: short diameter). […]

SNU449 Cp cells = experiment: Cell growth over time of TM4SF5-null cells (FIG. 43, left); format: cell-based, human; details: TSAHC at given concentrations
Method: Arrows indicate the overlapping nuclei of cells undergoing cell division. […] In addition, in order to measure the growth rates of the cells, 5×10^4 cells were plated onto 6-well plates and counted every 12 hrs. The results are expressed as a graph. […] This was observed even at a low cell density. That is, among cells at a low density, TM4SF5-expressing cells proliferated through cell division, during which two nuclei overlapped each other.

SNU449Tp cells [2] = experiment: BrdU immunofluorescent staining, S-phase progression (FIG. 44); format: cell-based, human; details: 20 μM, BrdU for 24 hrs
Method: (§1) When cells were transfected with given specific genes or infected with various viruses, they were used after being cultured for a given period of time. Cells treated with 10 mM lysophosphatidic acid (LPA) were used 1 hour after being attached to cover glasses. Immunofluorescent staining was carried out by preparing a slide for fluorescent analysis through incubation with a primary antibody against a target protein, washing out unbound antibody molecules, incubation with a fluorescein-conjugated secondary antibody and washing out unbound antibody molecules, and actin filament staininh was carried out with rhodamine-conjugated phalloidin. Antibodies used included antibodies against E-cadherin, β-catenin, FLAG, 4′-6-diamidino-2-phenylindole (DAPI), 5-brorno-2′-deoxy-uridine (BrdU), p27^kip1, ZO1 (zonula occludens-1), and the like. Immunofluorescent stained cover glasses were placed on slides and observed under a fluorescence microscope or a confocal laser scanning microscope.

cytosolic p27^kip1 = experiment: Immunofluorescent staining for p27^kip1 (FIG. 47); format: cell-based, human; details: 449Tp cells
Method: as §1

RhoA = experiment: In vitro RhoA activity assay (FIG. 48); format: cell-based, human; details: TM4SF5-expressing cells
Method: In order to investigate signaling pathways involved in the aforementioned morphological change, TM4SF5-expressing cell lines (SNU449Tp, T3, T7 and T16), established in Example 1, were assessed for expression levels of FAK phosphorylated at Tyr577 (pY^577FAK) and c-Src phosphorylated at Tyr 416 (pY^416cSrc), Rac1 activity and RhoA activity. Whole cell lysates were prepared and subjected to Western blot analysis, which was performed with each antibody against proteins indicated in FIGS. 3 and 5. The activity of RhoA and Rac1 was monitored by pull-down of RhoA and Rac1 from the cell lysates in vitro.

TM4SF5 = biological target: T1, TM4SF5 (Homo sapiens, UniProt O14894); experiment: Western blotting of lysates treated with PNGase F and Endo H (FIG. 50); format: cell-based
T1 construct: expressed in transfected cells; host or cells: SNU449 hepatocarcinoma cells stably expressing TM4SF5 (the embodiment)
T1 sequence (O14894 1-197): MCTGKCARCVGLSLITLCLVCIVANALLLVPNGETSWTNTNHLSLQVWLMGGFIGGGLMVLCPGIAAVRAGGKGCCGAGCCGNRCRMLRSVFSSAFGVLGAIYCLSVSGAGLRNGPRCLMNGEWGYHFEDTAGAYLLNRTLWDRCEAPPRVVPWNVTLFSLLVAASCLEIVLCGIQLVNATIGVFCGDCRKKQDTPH

[3] = tested on: cells not expressing TM4SF5; experiment: Growth/proliferation of cells not expressing TM4SF5 (FIG. 51); format: cell-based
SNU449Tp cells [4] = experiment: Transwell chamber cell migration (FIG. 65); format: cell-based, human; details: 20 μM, 18 hrs
Method: Cell migration was examined using Boyden Transwell chamber 24 well plates (Costar, Cambridge, Mass.). SNU449 Cp and SNU449Tp cells were placed in a chamber on a polycarbonate filter (8 μm porosity) at a density of 5×10^4 cells/well, and cultured in serum-free RPMI (Roswell Park Memorial Institute) media in an incubator at 37° C. under 5% CO2 for 24 hrs. Then, cells on the upper surface of the membrane of the insert chamber were completely removed by wiping with a cotton swab. Cells on the lower side of the membrane were fixed with 70% methanol for about 7 min.
SNU449 Cp cells and SNU449Tp cells were plated onto 6-well plates and cultured for 24 hrs. Cells were then treated with 20 μM of TSAHC to culture for 18 hrs. Cells were transferred into insert wells of the Transwell chamber. After 18 hrs, migrated cells were fixed, stained, and observed under an optical microscope. Cells were counted, and the results were expressed as a graph (FIG. 65).

SNU449Tp cells [5] = experiment: Invasion into collagen gel, microcarrier beads (FIG. 66); format: cell-based, human; details: 20 μM, 18 hrs
Method: Cell invasiveness was analyzed using Cytodex-3 microcarriers. SNU449 Cp and SNU449Tp cells were grown on microcarrier beads in an attached state, and cultured in a collagen gel matrix, including a serum-containing medium at 37° C.
SNU449 Cp cells and SNU449Tp cells were allowed to attach to microcarrier beads, and cultured in the presence of 20 μM of TSAHC for 18 hrs. Bead-cells were cultured in a collagen gel matrix, including a serum-containing medium, and observed for invasion into the collagen gel at given time points.

## Cc1ccc(S(=O)(=O)Nc2ccc(C(=O)/C=C/c3ccc(O)cc3)cc2)cc1 [Compound 1, 4′-(p-toluenesulfonylamino)-4-hydroxychalcone]
[1]; 5 mg/kg intraperitoneally once every two days for three weeks
  tumor size decreased by: 45%
[1]; 50 mg/kg intraperitoneally once every two days for three weeks
  tumor size decreased by: 88%
SNU449 Cp cells
  effect on TM4SF5-null cells: did not affect TM4SF5-null cells
SNU449Tp cells [2]
  S-phase progression: inhibited S-phase progression
Cytosolic p27^kip1
  cytosolic p27^kip1 levels: decrease in cytosolic p27^kip1 levels
RhoA
  RhoA activity: restored the reduced RhoA activity in TM4SF5-expressing cells
TM4SF5
  sensitivity of N-linked glycosylated region of TM4SF5 to PNGase F: increase the sensitivity of an N-linked glycosylated region of TM4SF5 to PNGase F
[3]
  growth or proliferation of cells not expressing TM4SF5: did not affect cells not expressing TM4SF5
SNU449Tp cells [4]
  TM4SF5-mediated cell migration: inhibit TM4SF5-mediated cell migration
SNU449Tp cells [5]
  TM4SF5-mediated cell invasion into collagen gel: inhibit TM4SF5-mediated cell invasion into collagen gel
